Assay results published in US20060142391A1, “PPARGAMMA-ACTIVATING PHARMACEUTICAL COMPOSITION” (priority 2001, published 2006).

Assays:
[1] = system: GAL4 (yeast transcription activator)—PPARγ fusion protein; experiment: PPARγ agonist activity assay (GAL4-PPARγ / CAT reporter in COS-1 cells); type: cell-based; conditions: for PPARγ agonist activity compared with 15-deoxy-PG J2 positive control: 1 μM; for PPARγ agonist activity relative to the negative control group with no drug added: concentration of 1 μM
Procedure: COS-1 cells were cotransfected with a plasmid for expressing a GAL4 (yeast transcription activator)—PPARγ fusion protein (effector plasmid) and a reporter plasmid 17 M2 CAT (GAL4 responsive sequence+TK promoter+chloramphenicol acetyltransferase cDNA), and then test compounds were added to the culture medium and CAT activity was assayed after 24 hours and compared with a negative control (with no drug added) to calculate a relative CAT activity, whereby PPARγ agonist activity was evaluated ('90 Proc. Natl. Acad. Sci. USA 87, p. 9995; '94 J. B. C. 269, p. 32700; '95 ibid. p. 5858; '00 J.B.C. 275, p. 33201). […] Then, 4(S)-OH-DHA, 8(S)-OH-DHA, 10(S)-OH-DHA, 11(S)-OH-DHA, 14(S)-OH-DHA and 17(S)-OH-DHA prepared in Example 1 were used as test compounds to assay PPARγ agonist activity as compared with 15-deoxy-PG J2 (from Bio Mol) known as a ligand for PPARγ as a positive control.

rat aortic smooth muscle = conditions: contraction induced by thromboxane A2 analog U 46619 (2.5 μM); cited from earlier work
[2] = system: hereditary diabetes db/db mice; experiment: Evaluation on hereditary diabetes mice (blood sugar); type: in vivo; conditions: oral 100 mg/kg for a week, n=6
Procedure: As a result of oral administration of 100 mg/kg of 8(S)-OH-DHA and 14(S)-OH-DHA to hereditary diabetes db/db mice (average body weight: 42 g, n=6, available from Sankyo Co., Ltd.) for a week, a significant decrease in blood sugar levels could be observed as compared with a negative control group (treated with 5% gum acacia as a vehicle) (Table 1).

[3] = system: neutrophils and vascular endothelial cells; experiment: In vitro model simulating vascular inflammation induced by TNFα (transwell); type: cell-based, bovine; conditions: 30, 3 or 0.3 μM together with TNFα
Procedure: An in vitro model simulating vascular inflammation was prepared according to the method described in “Textbook on Biopharmaceutical Experiments, 12 Inflammation and Allergy II”, pp. 327-341 (edited by Kazuo Ouchi, published by Hirokawa Publishing Co., May 15, 1993).
Transwells (from Kurabo Industries, Ltd.) divided into upper and lower chambers by a porous polycarbonate membrane having a pore size of 3 μm were used and a layer of bovine endothelial cells were coated on the bottom of the membrane and incubated at 37° C. under 5% CO2 for 80 minutes. […]
To the upper chamber of the transwells was added a suspension of neutrophils containing 4(S)-OH-DHA at a final concentration of 30, 3 or 0.3 μM together with TNFα to count the number of neutrophils permeating the vascular endothelial cell layer from the upper chamber into the lower chamber and the number of neutrophils adhering to the endothelial cell layer in the same manner as described above, and thereafter the migration and adhesion (%) of neutrophils were calculated.
The migration and adhesion percentages of neutrophils were expressed as relative values of the numbers of neutrophils that migrated or adhered in the group treated with the drug as compared with neutrophils in a negative control group.

platelets = experiment: Ex vivo collagen-induced platelet aggregation assay; type: in vivo, rats; conditions: 3-6 μg/ml collagen
Procedure: An evaluation was made to determine whether or not collagen-induced platelet aggregation is inhibited by 4(S)-OH-DHA.
Male SD rats (SPF, 9 weeks of age) were anesthetized and then blood was collected from the abdominal aorta into a tube containing 3.8% sodium citrate (Chitoral from Yamanouchi Pharmaceutical Co., Ltd.). The tube was centrifuged at 900 rpm at room temperature for 10 minutes to collect the supernatant (PRP, platelet-rich fraction), and the residue was further centrifuged at 2500 rpm for 15 minutes to collect the supernatant (PPP, platelet-poor fraction).
A cuvette containing PPP (platelet-poor fraction) was placed in an incubator for PPP at 37° C. in an aggregometer (Hematracer 240 12 ch, from MCM). Then, a cuvette containing 200 μl of PRP (platelet-rich fraction) was placed in a reactor for PRP. The cuvettes were stirred with a magnetic stirrer for 30 seconds to automatically correct the permeability of PPP to T650 nm=100% and the permeability of PRP to T650 nm=0%.
After 1 minute, 20 μl of collagen (from MCM) was added and subsequent changes in permeability were recorded for 5 minutes. The permeability increases with platelet aggregation. The permeability T at maximum aggregation, i.e. at the peak of aggregation was compared with the permeability T0 of a negative control to determine the degree of aggregation inhibition expressed in percentage using the following equation. Aggregation inhibition=(1−T/T0)×100
The aggregation induced by 3-6 μg/ml of collagen was evaluated in platelets prepared from blood collected at 2 instants, i.e. 10 minutes and 60 minutes after administration of 10 mg/kg of 4(S)-OH-DHA to the tail vain of male SD rats (SPF, 9 weeks of age). The aggregation was determined in animals treated with vehicle (physiological saline) as a control group.
As a control, a solvent (physiological saline) was used. Aggregation was induced by 3-6 μg/ml of collagen in platelets prepared from blood collected 10 minutes after administration of 10, 1 or 0.1 mg/kg of the test compound to the tail vain of rats.

Structure (SMILES) | PPARγ agonist activity compared with 15-deoxy-PG J2 positive control [1] | PPARγ agonist activity relative to the negative control group with no drug added ([1]; CAT activity after 24 hours) | further results
CC/C=C\C/C=C\C/C=C\C[C@H](O)/C=C/C=C\C/C=C\CCC(=O)O [11(S)-OH-DHA] | comparable to or higher than that of 15-deoxy-PG J2 | about 3 times | –
CC/C=C\C[C@H](O)/C=C/C=C\C/C=C\C/C=C\C/C=C\CCC(=O)O [17(S)-OH-DHA] | comparable to or higher than that of 15-deoxy-PG J2 | about 3 times | –
CC/C=C\C/C=C\CC(O)/C=C/C=C\C/C=C\C/C=C\CCC(=O)O (stereo not drawn) [14OH-DHA] | – | – | 25% inhibition concentration IC25 (rat aortic smooth muscle): 1.07 ± 0.34 µM
CC/C=C\C/C=C\C[C@H](O)/C=C/C=C\C/C=C\C/C=C\CCC(=O)O [14(S)-OH-DHA] | comparable to or higher than that of 15-deoxy-PG J2 | about 7 times | Blood sugar level [2]: 220 ± 13 mg/dL
CC/C=C\C/C=C\C/C=C\C/C=C\C/C=C\C/C=C\CCC(=O)O [DHA, docosahexaenoic acid, reference compound] | – | – | PPARγ transcription activity, ratio as compared with the negative control ([1]; test compound at 3 μM, CAT activity after 24 hours): 205±79%
CC/C=C\C/C=C\C/C=C\C/C=C\C[C@H](O)/C=C/C=C\CCC(=O)O [8(S)-OH-DHA] | comparable to or higher than that of 15-deoxy-PG J2 | about 7 times | Blood sugar level [2]: 190 ± 20 mg/dL
CC/C=C\C/C=C\C/C=C\C/C=C\C/C=C\C=C\[C@@H](O)CCC(=O)O [4(S)-OH-DHA] | comparable to or higher than that of 15-deoxy-PG J2 | about 3 times | Adhesion of neutrophils to the endothelial cell layer [3]: inhibited; Permeation (migration) of neutrophils through the endothelial cell layer [3]: inhibited; Platelet aggregation vs vehicle group (platelets; 1 mg/kg to tail vein, blood collected 10 minutes after administration): platelet aggregation was inhibited; Platelet aggregation vs vehicle group (platelets; 10 mg/kg to tail vein, blood collected 10 minutes after administration): platelet aggregation was inhibited; Platelet aggregation vs vehicle group (platelets; 10 mg/kg to tail vein, blood collected 60 minutes after administration): platelet aggregation was inhibited
CC/C=C\C/C=C\C/C=C\C=C\[C@@H](O)C/C=C\C/C=C\CCC(=O)O [10(S)-OH-DHA] | comparable to or higher than that of 15-deoxy-PG J2 | about 3 times | –
